Results: PubChem BioAssay AID256 (DTP/NCI, 2004)
Values joined by “and” are separate entries in the source; they are usually repeats but may differ in a detail not shown here. Equal entries are not always repeated. Toxic doses and inconclusive results are not listed. The calls were made as follows: active = survival T/C of 150% or more; inactive = T/C below 125% in these data.

System: CD2F1 mice, L1210 leukemia ip, survival T/C
Assay: NCI In Vivo Anticancer Drug Screen. Data for tumor model L1210 Leukemia (intraperitoneal) in CD2F1 (CDF1) mice
Conditions: endpoint: mean survival time, higher = longer survival
How it was run: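 Activity against a transplanted murine tumor was judged by comparing the compound group with a vehicle group. The outcome in the treated animals was divided by that in the controls.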

[1] = dose: 100.0 mg/kg/injection, schedule: Q01DX009 (ip), vehicle: saline with Tween-80
[2] = dose: 200.0 mg/kg/injection, schedule: Q01DX009 (ip), vehicle: saline with Tween-80
[3] = dose: 400.0 mg/kg/injection, schedule: Q01DX009 (ip), vehicle: saline with Tween-80
[4] = dose: 25.0 mg/kg/injection, schedule: Q01DX009 (ip), vehicle: saline with Tween-80
[5] = dose: 50.0 mg/kg/injection, schedule: Q01DX009 (ip), vehicle: saline with Tween-80
[6] = dose: 100.0 mg/kg/injection, schedule: Q04DX003 (ip), vehicle: saline with Tween-80
[7] = dose: 100.0 mg/kg/injection, schedule: Q01DX009 (ip), vehicle: saline
[8] = dose: 100.0 mg/kg/injection, schedule: Q04DX003 (ip), vehicle: saline
[9] = dose: 200.0 mg/kg/injection, schedule: Q01DX009 (ip), vehicle: saline
[10] = dose: 200.0 mg/kg/injection, schedule: Q04DX003 (ip), vehicle: saline
[11] = dose: 400.0 mg/kg/injection, schedule: Q01DX009 (ip), vehicle: saline
[12] = dose: 400.0 mg/kg/injection, schedule: Q04DX003 (ip), vehicle: saline
[13] = dose: 200.0 mg/kg/injection, schedule: Q04DX003 (ip), vehicle: saline with Tween-80
[14] = dose: 400.0 mg/kg/injection, schedule: Q04DX003 (ip), vehicle: saline with Tween-80

Measured: T/C

CC(C)(CNC1CCCCC1)OC(=O)c1ccc(N)cc1
inactive: dose: 5.0 mg/kg/injection, schedule: Q01DX001 (ip), vehicle: saline 102 % of control | dose: 10.0 mg/kg/injection, schedule: Q01DX001 (ip), vehicle: saline 96 % of control | dose: 20.0 mg/kg/injection, schedule: Q01DX001 (ip), vehicle: saline 98 % of control | dose: 40.0 mg/kg/injection, schedule: Q01DX001 (ip), vehicle: saline 104 % of control

CCOC(=O)c1ccc(OCC(=O)Nc2ccccc2)cc1
inactive: [1] 97 % of control | [2] 96 % of control | [3] 103 % of control

CN(C)CCC(=O)c1ccco1
inactive: dose: 25.0 mg/kg/injection, schedule: Q01DX001 (ip), vehicle: saline 104 % of control | dose: 50.0 mg/kg/injection, schedule: Q01DX001 (ip), vehicle: saline 95 % of control | dose: 100.0 mg/kg/injection, schedule: Q01DX001 (ip), vehicle: saline 97 % of control and 103 % of control

O=C1CCCC2C3CC(CN12)C1CCCCN1C3 (stereo not given)
inactive: [4] 103 % of control | [5] 101 % of control | [1] 100 % of control | [6] 97 % of control

CCCCNC(C)(C)C(SSSC(c1ccco1)C(C)(C)NCCCC)c1ccco1 (stereo not given)
inactive: dose: 12.5 mg/kg/injection, schedule: Q01DX009 (ip), vehicle: saline with Tween-80 102 % of control | [4] 96 % of control | [5] 98 % of control

O=C1N(Cc2ccccc2)CCS1(=O)=O
inactive: dose: 75.0 mg/kg/injection, schedule: Q01DX001 (ip), vehicle: other 96 % of control | dose: 150.0 mg/kg/injection, schedule: Q01DX001 (ip), vehicle: other 106 % of control

CCC(CC)c1ccccn1
inactive: [7] 115 % of control | [8] 99 % of control | [9] 120 % of control | [10] 99 % of control | [11] 117 % of control | [12] 110 % of control

OCc1ccc(Cl)cc1
inactive: [6] 96 % of control | [13] 97 % of control | [14] 100 % of control

COC(=O)C1CCC(C(=O)O)CC1 (stereo not given)
inactive: [1] 92 % of control | [6] 101 % of control | [2] 94 % of control | [13] 97 % of control | [3] 89 % of control | [14] 95 % of control

S=c1[nH]nc(Nc2ccccc2Cl)s1
inactive: dose: 100.0 mg/kg/injection, schedule: Q04DX003 (ip), vehicle: Klucel (hydroxypropylcellulose) (HPC) 95 % of control | dose: 200.0 mg/kg/injection, schedule: Q04DX003 (ip), vehicle: Klucel (hydroxypropylcellulose) (HPC) 95 % of control | dose: 400.0 mg/kg/injection, schedule: Q04DX003 (ip), vehicle: Klucel (hydroxypropylcellulose) (HPC) 95 % of control

COc1cccc(N=C(N)N=C(N)N)c1
inactive: [7] 95 % of control | [9] 90 % of control

Clc1ccc2c(NCCN3CCCCCC3)nc(C(Cl)(Cl)Cl)nc2c1
inactive: [5] 94 % of control | dose: 50.0 mg/kg/injection, schedule: Q04DX003 (ip), vehicle: saline with Tween-80 103 % of control | [1] 98 % of control | [6] 94 % of control | [2] 98 % of control | [13] 92 % of control

O=C(O)c1cccc2c1-c1ccccc1C(Br)C2Br (stereo not given)
inactive: [4] 93 % of control | dose: 50.0 mg/kg/injection, schedule: Q01DX005 (ip), vehicle: saline with Tween-80 100 % of control | [5] 93 % of control | dose: 100.0 mg/kg/injection, schedule: Q01DX005 (ip), vehicle: saline with Tween-80 88 % of control | [1] 89 % of control

COc1ccc(S(=O)(=O)F)cc1NC(=O)c1ccc2ccccc2c1O
inactive: [7] 112 % of control | [9] 108 % of control | [11] 113 % of control

c1ccc(CSc2ncnc3nc[nH]c23)nc1
inactive: dose: 133.0 mg/kg/injection, schedule: Q04DX003 (ip), vehicle: saline with Tween-80 117 % of control | dose: 300.0 mg/kg/injection, schedule: Q04DX003 (ip), vehicle: saline with Tween-80 102 % of control

CC(CN)OS(=O)(=O)O (stereo not given)
inactive: [5] 100 % of control | dose: 50.0 mg/kg/injection, schedule: Q04DX003 (ip), vehicle: saline 103 % of control | [1] 105 % of control | [8] 106 % of control | [2] 101 % of control | [10] 97 % of control | [3] 101 % of control | [12] 105 % of control

CCC(=O)NCCc1ccccc1
inactive: [1] 100 % of control | dose: 200.0 mg/kg/injection, schedule: Q01DX001 (ip), vehicle: saline with Tween-80 97 % of control | [2] 100 % of control | dose: 400.0 mg/kg/injection, schedule: Q01DX001 (ip), vehicle: saline with Tween-80 97 % of control

COC1CCC(/C=C(\C#N)C2CCC([N+](=O)[O-])CC2)CC1 (stereo not given)
inactive: [4] 86 % of control | [5] 88 % of control | [3] 94 % of control

NCCSC1(O)C(=O)c2ccccc2C1=O
inactive: dose: 37.5 mg/kg/injection, schedule: Q01DX009 (ip), vehicle: saline 109 % of control | dose: 75.0 mg/kg/injection, schedule: Q01DX009 (ip), vehicle: saline 109 % of control | dose: 150.0 mg/kg/injection, schedule: Q01DX009 (ip), vehicle: saline 89 % of control

CN(N=Nc1ccc(C(N)=O)cc1)C(C)(C)C
inactive: dose: 18.75 mg/kg/injection, schedule: Q01DX009 (ip), vehicle: Klucel (hydroxypropylcellulose) (HPC) 97 % of control | dose: 37.5 mg/kg/injection, schedule: Q01DX009 (ip), vehicle: Klucel (hydroxypropylcellulose) (HPC) 101 % of control | dose: 75.0 mg/kg/injection, schedule: Q01DX009 (ip), vehicle: Klucel (hydroxypropylcellulose) (HPC) 100 % of control | dose: 150.0 mg/kg/injection, schedule: Q01DX009 (ip), vehicle: Klucel (hydroxypropylcellulose) (HPC) 106 % of control | dose: 300.0 mg/kg/injection, schedule: Q01DX009 (ip), vehicle: Klucel (hydroxypropylcellulose) (HPC) 119 % of control

OCCOCCN1CCN(CCCN2c3ccccc3Sc3ccc(C(F)(F)F)cc32)CC1
inactive: dose: 6.25 mg/kg/injection, schedule: Q01DX009 (ip), vehicle: saline 121 % of control

COC1CC(O)C2OC(c3ccccc3)OCC2O1 (stereo not given)
inactive: [6] 104 % of control | [13] 93 % of control | [14] 107 % of control

Clc1cc(Cl)cc(Nc2nc(C(Cl)(Cl)Cl)nc(C(Cl)(Cl)Cl)n2)c1
inactive: [5] 98 % of control | [1] 95 % of control | [6] 89 % of control | [2] 90 % of control | [13] 86 % of control

O=[N+]([O-])c1cc(S(=O)(=O)c2ccc(F)c([N+](=O)[O-])c2)ccc1F
inactive: dose: 6.25 mg/kg/injection, schedule: Q01DX009 (ip), vehicle: Klucel (hydroxypropylcellulose) (HPC) 98 % of control | dose: 12.5 mg/kg/injection, schedule: Q01DX009 (ip), vehicle: Klucel (hydroxypropylcellulose) (HPC) 98 % of control | dose: 25.0 mg/kg/injection, schedule: Q01DX009 (ip), vehicle: Klucel (hydroxypropylcellulose) (HPC) 98 % of control

Cc1cccc(C2=N/C(=C\c3ccc(N(C)C)cc3)C(=O)O2)c1
inactive: dose: 25.0 mg/kg/injection, schedule: Q04DX002 (ip), vehicle: saline with Tween-80 102 % of control | dose: 50.0 mg/kg/injection, schedule: Q04DX002 (ip), vehicle: saline with Tween-80 91 % of control | dose: 100.0 mg/kg/injection, schedule: Q04DX002 (ip), vehicle: saline with Tween-80 94 % of control | dose: 200.0 mg/kg/injection, schedule: Q04DX002 (ip), vehicle: saline with Tween-80 95 % of control | dose: 400.0 mg/kg/injection, schedule: Q04DX002 (ip), vehicle: saline with Tween-80 95 % of control
